Laboratory results: US11426375B2, “Substituted bisphenyl butanoic ester derivatives as NEP inhibitors” (NOVARTIS AG, priority 2019, dated 2022)

Experiments:
[1] = system: DSS (Dahl Salt Sensitive) rats; test: In vivo efficacy study on blood pressure in DSS rats (telemetry; systolic and diastolic pressure); details: for Systolic blood pressure, mean / Diastolic blood pressure, Mean: Compound I-1 50 mg/kg; for Systolic blood pressure, mean: alone or combined, QD PO
Text: An in vivo study ascertains the effects on blood pressure in DSS (Dahl Salt Sensitive) rats. The DSS hypertensive rat model is a model of hypertension that is sensitive to dietary salt (NaCl), see for example Rapp (1982) Hypertension 4:753-763 and Hegde et al. BMC Pharmacology 2011, 11 (Suppl 1):P33. Under pentobarbital sodium anesthesia, a DSI (Data Sciences International, St. Paul, Minn.) telemetric probe is implanted. The transducer is inserted into abdominal aorta, and the transmitter is implanted into abdominal cavity. During postoperative recovery period, close observation is performed. Analgesics (Buprenorphine, 0.1-0.5 mg/kg, once per day for 1 day) and preventive antibiotics (Cephradine, 10˜15 mg/kg, ip., once per day for 3 days) are administered on a daily basis. Before the treatment period, all animals are fed with 8% high salt food for about 2 weeks. Test compound is formulated in 0.5% HPC and administered by oral gavage. Five groups of animals are treated as follows: 1. Vehicle, 0.5% HPC, QD, PO, N=5 2. Valsartan, 30 mg/kg, QD, PO, N=5 3. Compound I-1, 50 mg/kg, QD, PO, N=6 4. Compound I-1, 15 mg/kg+Valsartan, 30 mg/kg, QD, PO, N=5 5. Compound I-1, 50 mg/kg+Valsartan, 30 mg/kg, QD, PO, N=5 N is the number of animals. The mean arterial pressure, systolic pressure, diastolic pressure and heart rate after administration for each animal are measured. Interim results obtained before full study completion are shown in Tables 18 and 19 (full cohort of animals beyond day 7 were reduced due to some loss). Mean measurements of the systolic (Table 18) and diastolic (Table 19) blood pressures, for the baseline day prior to first treatment and for treatment days 1 and 7 only, in each treatment group, are shown. Measurements obtained every other hour only are shown.

[2] = Hygroscopicity, weight gain at 90% RH; format: physicochemical; details: after exposure to 90% RH
Text: The weight gain of compound I-1 after exposure to 90% RH (relatively humidity) was 0.34%, while that of AHU377 under the same conditions was 3.4%. […] On the other hand, AHU377 is a wax-like solid, which needs to be properly processed before further pharmaceutical processing such as weighing, dispensing and filling.

[3] = design: species or system Sprague Dawley rats; details: rat, in vivo, po, 10 mg/kg
Experimental: A parallel study design consisting of four groups with three animals per group was conducted to examine the pharmacokinetic properties of the compounds of the present disclosure.
The drugs were administered to each group are as follows: compound I-1 (Group 1), compound I-2 (Group 2), compound I-3 (Group 3), and AHU377 (sacubitril) (Group 4). Each animal received a single 10 mg/kg (5 ml/kg) oral gavage dose of the specified study drug. The animal weights ranged from […] at the beginning of the study. Compound I-1, compound I-2, compound I-3, and AHU377 were formulated in 0.5% methylcellulose (400 cp) and 0.1% Tween 80 (w,v) in water was used as the vehicle. Water bath sonication was applied to facilitate dispersing for all four study drugs. Blood samples for pharmacokinetics analysis were collected at t=0.25, 0.5, 1, 2, 4, 8, and 24 hours (±5%) post dose administration. Plasma was prepared by collecting whole blood samples into tubes containing EDTA and NaF (final concentrations: ˜1 mg/mL (K2EDTA) and ˜2 mg/mL (NaF)). These tubes were kept in an ice bath prior to centrifugation at approximately 2,000 rcf for 10 minutes at approximately 5° C. To each resultant plasma sample, 50% phosphoric acid (v/v) was added to achieve a final concentration of 1% (v,v).
[^13C4]-LBQ657 was added as an internal standard to the pharmacokinetic (PK) samples and calibration standards prior to analysis by LC-MS/MS. The LC-MS system consisted of an API6500+ mass spectrometer coupled to an Agilent 1290 HPLC system equipped with a CTC Pal autosampler. The mass spectrometer was operated in the positive ion mode with a TESI ion source.

## CCOC(=O)[C@H](C)C[C@@H](Cc1ccc(-c2ccccc2)cc1)NC(=O)CCC(=O)N[C@@H](CC(C)C)C(=O)O [Compound I-1, (4-(((2S,4R)-1-([1,1′-biphenyl]-4-yl)-5-ethoxy-4-methyl-5-oxopentan-2-yl)amino)-4-oxobutanoyl)-L-leucine]
[1]; Baseline day prior to first treatment, Hour 1, groups Valsartan 30 mg/kg
  Systolic blood pressure, mean: 163.63
[1]; Baseline day prior to first treatment, Hour 3, groups Valsartan 30 mg/kg
  Systolic blood pressure, mean: 159.24
[1]; Baseline day prior to first treatment, Hour 5, groups Valsartan 30 mg/kg
  Systolic blood pressure, mean: 155.66
[1]; Baseline day prior to first treatment, Hour 7, groups Valsartan 30 mg/kg
  Systolic blood pressure, mean: 154.92
[1]; Baseline day prior to first treatment, Hour 9, groups Valsartan 30 mg/kg
  Systolic blood pressure, mean: 157.92
[1]; Baseline day prior to first treatment, Hour 11, groups Valsartan 30 mg/kg
  Systolic blood pressure, mean: 162.87
[1]; Baseline day prior to first treatment, Hour 13, groups Valsartan 30 mg/kg
  Systolic blood pressure, mean: 167.91
[1]; Baseline day prior to first treatment, Hour 15, groups Valsartan 30 mg/kg
  Systolic blood pressure, mean: 167.33
[1]; Baseline day prior to first treatment, Hour 17, groups Valsartan 30 mg/kg
  Systolic blood pressure, mean: 167.09
[1]; Baseline day prior to first treatment, Hour 19, groups Valsartan 30 mg/kg
  Systolic blood pressure, mean: 169.48
[1]; Baseline day prior to first treatment, Hour 21, groups Valsartan 30 mg/kg
  Systolic blood pressure, mean: 169.41
[1]; Baseline day prior to first treatment, Hour 23, groups Valsartan 30 mg/kg
  Systolic blood pressure, mean: 161.71
[1]; Baseline day, Hour 1
  Diastolic blood pressure, Mean: 111.95
[1]; Baseline day, Hour 3
  Diastolic blood pressure, Mean: 107.76
[1]; Baseline day, Hour 5
  Diastolic blood pressure, Mean: 104.17
[1]; Baseline day, Hour 7
  Diastolic blood pressure, Mean: 102.18
[1]; Baseline day, Hour 9
  Diastolic blood pressure, Mean: 105.63
[1]; Baseline day, Hour 11
  Diastolic blood pressure, Mean: 111.89
[1]; Baseline day, Hour 13
  Diastolic blood pressure, Mean: 116.86
[1]; Baseline day, Hour 15
  Diastolic blood pressure, Mean: 115.85
[1]; Baseline day, Hour 17
  Diastolic blood pressure, Mean: 116.42
[1]; Baseline day, Hour 19
  Diastolic blood pressure, Mean: 117.36
[1]; Baseline day, Hour 21
  Diastolic blood pressure, Mean: 116.95
[1]; Baseline day, Hour 23
  Diastolic blood pressure, Mean: 109.93
[1]; Dosing day 1, Hour 1
  Diastolic blood pressure, Mean: 115.05
[1]; Dosing day 1, Hour 3
  Diastolic blood pressure, Mean: 106.99
[1]; Dosing day 1, Hour 5
  Diastolic blood pressure, Mean: 104.66
[1]; Dosing day 1, Hour 7
  Diastolic blood pressure, Mean: 106.82
[1]; Dosing day 1, Hour 9
  Diastolic blood pressure, Mean: 108.88
[1]; Dosing day 1, Hour 11
  Diastolic blood pressure, Mean: 114.90
[1]; Dosing day 1, Hour 13
  Diastolic blood pressure, Mean: 116.00
[1]; Dosing day 1, Hour 15
  Diastolic blood pressure, Mean: 117.42
[1]; Dosing day 1, Hour 17
  Diastolic blood pressure, Mean: 118.42
[1]; Dosing day 1, Hour 19
  Diastolic blood pressure, Mean: 122.21
[1]; Dosing day 1, Hour 21
  Diastolic blood pressure, Mean: 115.68
[1]; Dosing day 1, Hour 23
  Diastolic blood pressure, Mean: 111.09
[1]; Dosing day 7, Hour 1
  Diastolic blood pressure, Mean: 118.61
[1]; Dosing day 7, Hour 3
  Diastolic blood pressure, Mean: 109.11
[1]; Dosing day 7, Hour 5
  Diastolic blood pressure, Mean: 108.96
[1]; Dosing day 7, Hour 7
  Diastolic blood pressure, Mean: 114.22
[1]; Dosing day 7, Hour 9
  Diastolic blood pressure, Mean: 126.44
[1]; Dosing day 7, Hour 11
  Diastolic blood pressure, Mean: 129.02
[1]; Dosing day 7, Hour 13
  Diastolic blood pressure, Mean: 131.34
[1]; Dosing day 7, Hour 15
  Diastolic blood pressure, Mean: 126.20
[1]; Dosing day 7, Hour 17
  Diastolic blood pressure, Mean: 127.80
[1]; Dosing day 7, Hour 19
  Diastolic blood pressure, Mean: 124.88
[1]; Dosing day 7, Hour 21
  Diastolic blood pressure, Mean: 116.93
[1]; Dosing day 7, Hour 23
  Diastolic blood pressure, Mean: 120.18
[1]; DSS rats, as compared to animals treated with vehicle alone, interim results
  effect on blood pressure: trend for lower blood pressure
[1]; Dosing day 1, Hour 1, Valsartan 30 mg/kg
  Systolic blood pressure, mean: 164.94
[1]; Dosing day 1, Hour 3, Valsartan 30 mg/kg
  Systolic blood pressure, mean: 152.46
[1]; Dosing day 1, Hour 5, Valsartan 30 mg/kg
  Systolic blood pressure, mean: 155.79
[1]; Dosing day 1, Hour 7, Valsartan 30 mg/kg
  Systolic blood pressure, mean: 159.33
[1]; Dosing day 1, Hour 9, Valsartan 30 mg/kg
  Systolic blood pressure, mean: 166.16
[1]; Dosing day 1, Hour 11, Valsartan 30 mg/kg
  Systolic blood pressure, mean: 168.46
[1]; Dosing day 1, Hour 13, Valsartan 30 mg/kg
  Systolic blood pressure, mean: 169.35
[1]; Dosing day 1, Hour 15, Valsartan 30 mg/kg
  Systolic blood pressure, mean: 169.78
[1]; Dosing day 1, Hour 17, Valsartan 30 mg/kg
  Systolic blood pressure, mean: 174.28
[1]; Dosing day 1, Hour 19, Valsartan 30 mg/kg
  Systolic blood pressure, mean: 166.11
[1]; Dosing day 1, Hour 21, Valsartan 30 mg/kg
  Systolic blood pressure, mean: 162.24
[1]; Dosing day 1, Hour 23, Valsartan 30 mg/kg
  Systolic blood pressure, mean: 158.31
[1]; Dosing day 7, Hour 1, Valsartan 30 mg/kg
  Systolic blood pressure, mean: 167.78
[1]; Dosing day 7, Hour 3, Valsartan 30 mg/kg
  Systolic blood pressure, mean: 158.75
[1]; Dosing day 7, Hour 5, Valsartan 30 mg/kg
  Systolic blood pressure, mean: 156.95
[1]; Dosing day 7, Hour 7, Valsartan 30 mg/kg
  Systolic blood pressure, mean: 165.23
[1]; Dosing day 7, Hour 9, Valsartan 30 mg/kg
  Systolic blood pressure, mean: 176.77
[1]; Dosing day 7, Hour 11, Valsartan 30 mg/kg
  Systolic blood pressure, mean: 182.56
[1]; Dosing day 7, Hour 13, Valsartan 30 mg/kg
  Systolic blood pressure, mean: 182.29
[1]; Dosing day 7, Hour 15, Valsartan 30 mg/kg
  Systolic blood pressure, mean: 175.64
[1]; Dosing day 7, Hour 17, Valsartan 30 mg/kg
  Systolic blood pressure, mean: 179.39
[1]; Dosing day 7, Hour 19, Valsartan 30 mg/kg
  Systolic blood pressure, mean: 175.46
[1]; Dosing day 7, Hour 21, Valsartan 30 mg/kg
  Systolic blood pressure, mean: 165.83
[1]; Dosing day 7, Hour 23, Valsartan 30 mg/kg
  Systolic blood pressure, mean: 170.13
[2]
  weight gain (hygroscopicity): 0.34%
[3]; male, Sprague-Dawley
  LBQ657 concentration-time profile: flattened relative to AHU377
  conversion to LBQ657: nearly complete conversion to LBQ657
[3]
  LBQ657 exposure (based on AUC values): did not decrease relative to that of AHU377
  tolerability: very well tolerated
